By IC50 is commonly meant the concentration that gives 50% inhibition.

For one assay, the system named is THP-1 cells. The assay can be described thus: LPS-stimulated cytokine (TNFα) release in THP-1. Format: cell-based, Human. Particulars: LPS 100 ng/mL, 5 hours, TNF-α ELISA, read-out: Inhibition IC50 (nM) of cytokines (TNFα) against LPS-stimulated inflammatory responses in THP-1 cells. Here is the method:
THP-1 cells were cultured in suspension in RPMI 1640 complete medium (containing 10% serum, 1% penicillin-streptomycin, and 55 μM β-mercaptoethanol). THP-1 cells were collected, centrifuged at 350×g at room temperature to discard the supernatant, and resuspended in RPMI 1640 complete medium to a concentration of 2×10^6 cells per mL. THP-1 cells were spread into a 96-well plate at a concentration of 2×10^5 cells per well, and different concentrations of the compound to be tested were added thereto. The plate was incubated in a 37° C. cell culture incubator with 5% CO2 for 60 minutes. 50 μL of LPS at a final concentration of 100 ng/mL was added to a 96-well plate, and incubated in a 37° C. cell culture incubator for 5 hours. The cell culture plate was then taken out from the incubator, and centrifuged at 350×g at low temperature for 5 minutes to collect 150 μL of the supernatant. Referring to the instructions in the Human TNF-α Duoset ELISA Kit, the level of TNF-α in the cell culture supernatant was detected.
Data on the inhibitory activity of cytokines (TNFα) against LPS-stimulated inflammatory responses in THP-1 cells are shown in Tables 3 and 4.
Background: ELISA stands for enzyme-linked immunosorbent assay.

The target in assay [1] is T1, IRAK4 protein in THP-1 cells (Homo sapiens, UniProt Q9NWZ3).
T1 construct: endogenous in cells; host or cells: THP-1
T1 sequence (Q9NWZ3 1-460): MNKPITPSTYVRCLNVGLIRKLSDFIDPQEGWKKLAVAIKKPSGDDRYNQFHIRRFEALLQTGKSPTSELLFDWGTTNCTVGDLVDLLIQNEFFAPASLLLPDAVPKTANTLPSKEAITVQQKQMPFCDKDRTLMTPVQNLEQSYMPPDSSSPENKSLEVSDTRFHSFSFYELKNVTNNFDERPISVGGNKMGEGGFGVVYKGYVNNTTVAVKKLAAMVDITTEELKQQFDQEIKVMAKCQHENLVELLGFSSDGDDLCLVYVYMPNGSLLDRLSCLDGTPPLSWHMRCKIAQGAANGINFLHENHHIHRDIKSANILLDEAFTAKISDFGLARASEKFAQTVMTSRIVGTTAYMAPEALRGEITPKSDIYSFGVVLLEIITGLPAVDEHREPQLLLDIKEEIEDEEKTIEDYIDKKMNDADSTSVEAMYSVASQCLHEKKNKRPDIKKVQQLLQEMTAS
Nature of the assay: IRAK4 protein degradation in THP-1 induced by PROTAC (Western Blot). The following applies: GAPDH internal reference. It is filed as cell-based. Here is the method:
3.1. Based on the experimental method of immunoblot, i.e., Western Blot, THP-1 cell samples processed by gel electrophoresis were stained with specific antibodies, and the degradation activity of the compounds on the IRAK4 protein in THP-1 cells was determined by analyzing the position of the staining and the depth of the staining. The detection concentrations of the compounds were 0 μM, 0.3 μM, 1 μM, and 3 μM, and the compounds were used to treat the cells for 8 hours, 16 hours, 24 hours, and 48 hours. In this case, glyceraldehyde-3-phosphate dehydrogenase (GAPDH) was the internal reference protein for the assay.
THP-1 cells were spread into a 6-well plate at a density of 1.5×10^6 cells per mL, and incubated in a 37° C. cell culture incubator with 5% CO2 for 2 hours. The compound was diluted with DMSO to 0.6 mM, 0.2 mM, and 0.06 mM, respectively. 10 μL of compound solution was added to the corresponding wells, and the plate was incubated in the incubator for 16 hours, 24 hours, and 48 hours, respectively. The drug-treated THP-1 cells were collected from the wells, added with 120 μL of RIPA lysis buffer containing protease inhibitor, phosphatase inhibitor cocktail 2, and phosphatase inhibitor cocktail 3, and lysed on wet ice for 30 minutes. The cell lysate was then centrifuged at low temperature and high speed for 5 minutes, and the supernatant was collected. Referring to the instructions in the Pierce™ BCA Protein Assay Kit, the cell samples were tested for protein concentration.
The samples were adjusted to the same concentration using lysis buffer and NuPAGE® LDS sample buffer containing 1 M DTT. The samples were heated at 95° C. for 5 minutes and centrifuged at low temperature and high speed. 20 μL of prepared protein sample and 4 μL of PageRuler Prestained Protein Ladder were added to the gel wells. The mixture was electrophoresed at a voltage of 80 V for 0.5 hours, and then electrophoresed for another 1.5 hours after the voltage was adjusted to 120 V. The gel was removed and proteins in the gel were transferred to IBlot™ 2 Transfer Stack at a voltage of 20V. After successful membrane transfer, the bands were cut out at 65 kDa to 40 kDa and 40 kDa to 30 kDa, respectively. The membrane was blocked with 5% non-fat milk at room temperature for 1 hour. The membrane was washed three times with 1×TBST, and incubated with IRAK4 antibody working solution at 4° C. overnight. The IRAK4 antibody working solution was discarded, and the membrane was washed three times with 1×TBST. After the corresponding membrane was incubated with Goat Anti-Rabbit IgG H&L (HRP) working solution and Goat Anti-Mouse IgG H&L (HRP) working solution at room temperature for 1 hour, the antibody working solutions were discarded, and the membrane was washed three times with 1×TBST. Referring to the instructions in the SuperSignal™ West Femto Maximum Sensitivity Substrate Kit, the reagents in the kit were mixed in equal volume proportions to prepare a luminescent mixture, and the membrane was incubated for 1 minute and removed for exposure.
WB assay: The results 24 hours after administration at 1 μM were divided into estimated <25%, <50%, <75%, and <100%.
For orientation: In western blotting, separated proteins are transferred to a membrane and probed.

For a further assay, the target named is T2, IRAK4 kinase (Homo sapiens, UniProt Q9NWZ3).
T2 construct: purchased Carna 09-145
T2 sequence (Q9NWZ3 1-460): T1 sequence (Q9NWZ3 1-460)
Nature of the assay: Compound inhibition of IRAK4 kinase activity (fluorescence microfluidic mobility shift assay). It is filed as biochemical. Particulars: 10 μM ATP, 6 nM IRAK4 kinase. The method, then: Based on the experimental method of fluorescence microfluidic mobility shift assay, the IC50 value of the compound for competitive binding of ATP to IRAK4 kinase was determined. The initial detection concentration of the compound was 10 μM, which was 4-fold serially diluted to 0.38 nM and assayed in duplicate. In this case, commercially available staurosporine was the standard control for the assay.
1) IRAK4 kinase was dissolved in kinase buffer (50 mM HEPES pH 7.5, 10 mM MgCl2, 2 mM DDT, and 0.01% Brij-35) at a final concentration of 6 nM.
2) The substrate peptide FAM-P8 and ATP were dissolved in the above kinase buffer, and the final concentrations of the substrate peptide FAM-P8 and ATP for IRAK4 were 3 μM and 10 μM, respectively.
3) Compound dilution: The compound was first diluted to 50 μM, and then 4-fold serially diluted with DMSO. In this case, the solution without compound and kinase served as the blank control, corresponding to the “minimum value” shown below; the solution without compound but containing kinase, adenosine 5′-triphosphate disodium salt hydrate, DMSO, and the buffer served as the positive control, corresponding to the “maximum value” shown below.
4) Kinase reaction and termination: 10 μL of the kinase buffer was added to a 384-well plate containing 5 μL of the compound to be tested, and the mixture was incubated at room temperature for 10 minutes; another 10 μL of buffer containing the substrate peptide and adenosine 5′-triphosphate disodium salt hydrate was added to the 384-well plate, and after incubation at 28° C. for 1 hour, 25 μL of termination solution (100 mM HEPES pH 7.5, 50 mM EDTA, 0.2% Coating Reagent #3, and 0.015% Brij-35) was added to each well to terminate the reaction.
5) Data reading: CaliperEZ Reader II instrument was used to read the conversion rate data. Setting conditions: downstream voltage as −500 V, upstream voltage as −2250 V, base pressure as −0.5 PSI, and screening pressure as −1.2 PSI.
6) Data calculation: the conversion rate data was copied from CaliperEZ Reader II, and the conversion rate was converted into inhibition rate data. The calculation formula is as follows: Inhibition percentage (%)=(maximum value−conversion rate)/(maximum value−minimum value)*100%
IC50 values were fitted with XLFit excel add-in version 5.4.0.8.

Where two headings read alike, the source gives them in different places. A value given as a limit tells only on which side of the number the result lay.

Take `CC(C)(O)c1cc2nn(CCN3CCN(CC(=O)N4CCC5(CC4)CN(c4cccc6c4C(=O)N(C4CCC(=O)NC4=O)C6=O)C5)C3=O)cc2cc1NC(=O)c1cccc(C(F)(F)F)n1` (stereo not shown) [III-5]: the IC50 lay in the range of 1000 to 10000 nM in the assay with THP-1 cells (Homo sapiens, THP-1, Table 4); 100 to 1000 nM on IRAK4 kinase (Table 1); 100 to 1000 nM on IRAK4 kinase (Table 2). Moreover, in assay [1] (Table 6, estimated bins), the “Western Blot results 24 hours after administration at a drug concentration of 1 μM” value (“Western Blot results 24 hours” for short) is listed as below 25%.

As for `Cc1ncsc1-c1ccc([C@H](C)NC(=O)[C@@H]2C[C@@H](O)CN2C(=O)[C@@H](NC(=O)C2CC3(CCN(C(=O)CN4CCN(CCn5cc6cc(NC(=O)c7cccc(C(F)(F)F)n7)c(C(C)(C)O)cc6n5)C4=O)CC3)C2)C(C)(C)C)cc1` [III-16], the IC50 is 1000 to 10000 nM with THP-1 cells (Homo sapiens, THP-1, Table 3); 1000 to 10000 nM with THP-1 cells (Table 4); 100 to 1000 nM on IRAK4 kinase (Table 1); 100 to 1000 nM at IRAK4 kinase (Table 2). The “Western Blot results 24 hours” value in assay [1] (Table 5, estimated bins) is below 50%.

`Cc1ncsc1-c1ccc([C@H](C)NC(=O)[C@@H]2C[C@@H](O)CN2C(=O)[C@@H](NC(=O)C2CCC3(CC2)CCN(C(=O)CN2CCN(CCn4cc5cc(NC(=O)c6cccc(C(F)(F)F)n6)c(C(C)(C)O)cc5n4)C2=O)CC3)C(C)(C)C)cc1` [III-17]: the IC50 fell in the range of 1000 to 10000 nM in the assay on THP-1 cells (Homo sapiens, THP-1, Table 3); 1000 to 10000 nM with THP-1 cells (Table 4); 100 to 1000 nM at IRAK4 kinase (Table 1); 100 to 1000 nM on IRAK4 kinase (Table 2). The “Western Blot results 24 hours” value in assay [1] (Table 5, estimated bins) is below 25%; in assay [1] (Table 6, estimated bins), below 25%.

As for `CC(C)(O)c1cc2nn(CCN3CCN(CC(=O)N4CC5(C4)CN(c4cccc6c4C(=O)N(C4CCC(=O)NC4=O)C6=O)C5)CC3)cc2cc1NC(=O)c1cccc(C(F)(F)F)n1` (stereo not shown) [III-63], the “Western Blot results 24 hours” value in assay [1] (Table 6, estimated bins) is recorded as below 25%. In addition, on IRAK4 kinase (Table 2), the IC50 was below 100 nM.

Turning to `COc1cc2nn(CCN3CCN(c4ccc(OCC#Cc5cccc6c5C(=O)N(C5CCC(=O)NC5=O)C6=O)cc4)CC3)cc2cc1NC(=O)c1cccc(C(F)(F)F)n1` (stereo not shown) [III-69], the “Western Blot results 24 hours” value in assay [1] (Table 6, estimated bins) is given as below 25%. For the same compound, the IC50 at IRAK4 kinase (Table 2) was in the range of 100 to 1000 nM.

The record behind these values is patent US12281098B2, “Five-membered-fused six-membered compound, preparation method, pharmaceutical composition and use” (HANGZHOU POLYMED BIOPHARMACEUTICALS, INC., priority 2021, dated 2025).
